The values below come from patent EP2611798B1, “PYRIDAZINONES, METHOD OF MAKING, AND METHOD OF USE THEREOF” (Gilead Connecticut, Inc., priority 2010, dated 2012).

The IC50 is the concentration at which inhibition is half-maximal. A high value points to weaker potency in that assay. As a reminder, the EC50 is the concentration needed to bring the measured effect to its halfway point. A higher EC50 goes with a less potent agent.

The target of one experiment is T1, full length human wildtype Btk (Homo sapiens, UniProt Q06187).
T1 construct: V5 (C); 6xHis (C); made in house; host or cells: Sf9 insect cells (baculovirus, pFastBac)
T1 sequence (Q06187 whole entry): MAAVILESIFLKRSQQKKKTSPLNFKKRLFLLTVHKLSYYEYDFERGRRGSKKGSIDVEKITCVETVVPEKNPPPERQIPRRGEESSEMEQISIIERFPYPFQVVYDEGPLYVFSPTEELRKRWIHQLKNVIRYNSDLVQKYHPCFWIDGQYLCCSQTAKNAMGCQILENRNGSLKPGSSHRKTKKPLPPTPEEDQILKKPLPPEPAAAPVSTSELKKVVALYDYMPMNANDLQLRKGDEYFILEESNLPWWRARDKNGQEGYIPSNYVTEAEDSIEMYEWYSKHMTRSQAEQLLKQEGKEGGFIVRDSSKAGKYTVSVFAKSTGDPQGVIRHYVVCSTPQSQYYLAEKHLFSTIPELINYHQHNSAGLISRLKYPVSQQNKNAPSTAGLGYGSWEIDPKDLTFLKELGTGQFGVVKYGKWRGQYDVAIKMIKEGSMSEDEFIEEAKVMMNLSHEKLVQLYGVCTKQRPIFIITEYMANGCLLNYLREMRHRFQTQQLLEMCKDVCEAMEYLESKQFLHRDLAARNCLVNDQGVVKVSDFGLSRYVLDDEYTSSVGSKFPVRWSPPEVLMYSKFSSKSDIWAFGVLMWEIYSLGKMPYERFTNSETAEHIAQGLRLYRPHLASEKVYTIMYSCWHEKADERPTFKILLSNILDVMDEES
Put plainly: Biochemical Btk Kinase Assay (Example 901). Conditions: time-resolved fluorescence, final ATP concentration 40 µM; alternatively Lanthascreen assay, ATP 25 uM. Here is the method: Formula I compounds were tested by a standard biochemical Btk Kinase Assay (Example 901). A generalized procedure for a standard biochemical Btk Kinase Assay that can be used to test Formula I compounds is as follows. […] Btk enzyme is prepared as follows: full length human wildtype Btk (accession number NM-000061) with a C-terminal V5 and 6x His tag was subcloned into pFastBac vector for making baculovirus carrying this epitope-tagged Btk. Generation of baculovirus is done based on Invitrogen's instructions detailed in its published protocol "Bac-to-Bac Baculovirus Expression Systems" (Cat. Nos. 10359-016 and 10608-016). Passage 3 virus is used to infect Sf9 cells to overexpress the recombinant Btk protein. The Btk protein is then purified to homogeneity using Ni-NTA column. The purity of the final protein preparation is greater than 95% based on the sensitive Sypro-Ruby staining. A solution of 200 µM ATP is prepared in water and adjusted to pH7.4 with 1N NaOH. A quantity of 1.25 µL of compounds in 5%DMSO is transferred to a 96-well ½ area Costar polystyrene plate. Compounds are tested singly and with an 11-point dose-responsive curve (starting concentration is 10 µM; 1:2 dilution). A quantity of 18.75 µL of master mix minus enzyme (as a negative control) and master mix plus enzyme is transferred to appropriate wells in 96-well ½ area costar polystyrene plate. 5 µL of 200 µM ATP is added to that mixture in the 96-well ½ area Costar polystyrene plate for final ATP concentration of 40 µM. The reaction is allowed to incubate for 1 hour at room temperature. The reaction is stopped with Perkin Elmer 1X detection buffer containing 30 mM EDTA, 20 nM SA-APC, and 1 nM PT66 Ab. The plate is read using time-resolved fluorescence with a Perkin Elmer Envision using excitation filter 330 nm, emission filter 665 nm, and 2nd emission filter 615 nm. IC50 values are subsequently calculated. Alternatively, the Lanthascreen assay can be used to evaluate Btk activity through quantification of its phosphorylated peptide product. The FRET (Fluorescence Resonance Energy Transfer) that occurs between the fluorescein on the peptide product and the terbium on the detection antibody decreases with the addition of inhibitors of Btk that reduce the phosphorylation of the peptide. […] After incubation for 60 minutes at room temperature, the reaction is stopped by the addition of a final concentration of 2 nM Tb-PY20 detection antibody in 60 mM EDTA for 30 minutes at room temperature. Detection is determined on a Perkin Elmer Envision with 340 nm excitation and emission at 495 nm and 520 nm. Exemplary Btk inhibition IC50 values are in Tables and 2.
Background: In TR-FRET formats the signal depends on donor and acceptor labels being close together.
`Cc1c(-c2cc(Nc3cc(C)n(C)n3)c(=O)[nH]n2)cccc1N1Cc2cc(C(C)(C)C)sc2C1=O` [Compound 112, 6-(3-{2-tert-butyl-6-oxo-4H,5H,6H-thieno[2,3-c]pyrrol-5-yl}-2-methylphenyl)-4-[(1,5-dimethyl-1 H-pyrazol-3-yl)amino]-2,3-dihydropyridazin-3-one] displayed an IC50 of 3 nM.

`Cc1cc(Nc2cc(-c3cccc(N4Cc5cc(C(C)(C)C)sc5C4=O)c3C)n[nH]c2=O)no1` [Compound 115, 6-(3-{2-tert-butyl-6-oxo-4H,5H,6H-thieno[2,3-c]pyrrol-5-yl}-2-methylphenyl)-4-[(5-methyl-1,2-oxazol-3-yl)amino]-2,3-dihydropyridazin-3-one] returned an IC50 of 18 nM.

The compound `Cc1cc(Nc2cc(-c3ccc(F)c(N4Cc5cc(C(C)(C)C)sc5C4=O)n3)n[nH]c2=O)nn1C` [Compound 117, 6-(6-{2-tert-butyl-b-oxo-4H,5H,6H-thieno[2,3-c]pyrrol-5-yl}-5-fluoropyridin-2-yl)-4-[(1,5-dimethyl-1H-pyrazol-3-yl)amino]-2,3-dihydropyridazin-3-one] came in with an IC50 of 45 nM. On the same count and under the same terms, the value for `Cc1c(-c2cc(Nc3nc4c(s3)CNCC4)c(=O)[nH]n2)cccc1N1Cc2cc(C(C)(C)C)sc2C1=O` [Compound 118, 6-(3-{2-tert-butyl-6-oxo-4H,5H,6H-thieno[2,3-c]pyrrol-5-yl}-2-methylphenyl)-4-{4H,5H,6H,7H-pyrido[4,3-d][1,3]thiazol-2-ylamino}-2,3-dihydropyridazin-3-one] was 65 nM; that for `Cc1c(-c2cc(Nc3cc(CN4CC(F)(F)C4)n(C)n3)c(=O)[nH]n2)cccc1N1Cc2cc(C(C)(C)C)sc2C1=O` [Compound 119, 6-(3-{2-tert-butyl-6-oxo-4H,5H,6H-thieno[2,3-c]pyrrol-5-yl}-2-methylphenyl)-4-({5-[(3,3-difluoroazetidin-1-yl)methyl]-1-methyl-1H-pyrazol-3-yl}amino)-2,3-dihydropyridazin-3-one] was 5 nM. `CN1CCn2nc(Nc3cc(-c4cccc(N5Cc6cc(C(C)(C)C)sc6C5=O)c4CO)nn(C)c3=O)cc2C1` [Compound 120, 6-(3-{2-tert-butyl-6-oxo-4H,5H,6H-thieno[2,3-c]pyrrol-5-yl}-2-(hydroxymethyl)phenyl)-2-methyl-4-({5-methyl-4H,5H,6H,7H-pyrazolo[1,5-a]pyrazin-2-yl}amino)-2,3-dihydropyridazin-3-one] displayed an IC50 of 55 nM.

A further experiment deals with CD86 surface expression. Put plainly: CD86 Inhibition Assay (Example 905), inhibition of B cell activity in total mouse splenocytes. In kind it is cell-based, Balb/c mice. Conditions: Splenocyte; total mouse splenocytes stimulated with 15 µg/ml IgM for 24 hr; gated on CD19+/7AAD- population. As for the experimental part: A CD86 Inhibition assay can be conducted on Formula I compounds for the inhibition of B cell activity using total mouse splenocytes purified from spleens of 8-16 week old Balb/c mice (Example 905).
A generalized procedure for a standard assay for the inhibition of B cell activity that can be used to test Formula I compounds is as follows. Total mouse splenocytes are purified from spleens of 8-16 week old Balb/c mice by red blood cell lysis (BD Pharmingen #555899). Testing compounds are diluted to 0.5% DMSO and incubated with 1.25 x 10^6 splenocytes in a final volume of 200 µl in flat clear bottom plates (Falcon 353072) for 60 min at 37°C. Cells are then stimulated with the addition of 15 µg/ml IgM (Jackson ImmunoResearch 115-006-020), and incubated for 24 hr at 37°C, 5% CO2. Following the 24 hr incubation, cells are transferred to conical bottom clear 96-well plates and pelleted by centrifugation at 1200 x g x 5 min. Cells are preblocked by CD16/CD32 (BD Pharmingen #553142), followed by triple staining with CD19-FITC (BD Pharmingen #553785), CD86-PE (BD Pharmingen #553692), and 7AAD (BD Pharmingen #51-68981E). Cells are sorted on a BD FACSCalibur and gated on the CD19^+/7AAD^- population. The levels of CD86 surface expression on the gated population is measured versus test compound concentration. Exemplary results are in Table 3.
In turn, `Cc1c(-c2cc(Nc3cc4n(n3)CCN(C)C4)c(=O)[nH]n2)cccc1N1Cc2cc(C(C)(C)C)sc2C1=O` [Compound 101, 6-(3-{2-tert-butyl-6-oxo-4H,5H,6H-thieno[2,3-c]pyrrol-5-yl}-2-methylphenyl)-4-({5-methyl-4H,5H,6H,7H-pyrazolo[1,5-a]pyrazin-2-yl}amino)-2,3-dihydropyridazin-3-one] displayed an EC50 of 192 nM. `Cc1c(-c2cc(Nc3cc(CN4CC(F)(F)C4)n(C)n3)c(=O)[nH]n2)cccc1N1Cc2cc(C(C)(C)C)sc2C1=O` [Compound 119, 6-(3-{2-tert-butyl-6-oxo-4H,5H,6H-thieno[2,3-c]pyrrol-5-yl}-2-methylphenyl)-4-({5-[(3,3-difluoroazetidin-1-yl)methyl]-1-methyl-1H-pyrazol-3-yl}amino)-2,3-dihydropyridazin-3-one] displayed an EC50 of 352 nM. The compound `CN1CCn2nc(Nc3cc(-c4cccc(N5Cc6cc(C(C)(C)C)sc6C5=O)c4CO)nn(C)c3=O)cc2C1` [Compound 120, 6-(3-{2-tert-butyl-6-oxo-4H,5H,6H-thieno[2,3-c]pyrrol-5-yl}-2-(hydroxymethyl)phenyl)-2-methyl-4-({5-methyl-4H,5H,6H,7H-pyrazolo[1,5-a]pyrazin-2-yl}amino)-2,3-dihydropyridazin-3-one] came in with an EC50 of 189 nM. Compound `Cc1c(-c2cc(Nc3cc4n(n3)CCN(C)C4)c(=O)n(C)n2)cc(F)cc1N1Cc2cc(C(C)(C)C)sc2C1=O` [Compound 124, 6-(3-{2-tert-butyl-6-oxo-4H,5H,6H-thieno[2,3-c]pyrrol-5-yl}-5-fluoro-2-methylphenyl)-2-methyl-4-({5-methyl-4H,5H,6H,7H-pyrazolo[1,5-a]pyrazin-2-yl}amino)-2,3-dihydropyridazin-3-one] showed an EC50 of 1100 nM. As to `Cn1nc(-c2cccc(N3Cc4cc(C(C)(C)C)sc4C3=O)c2CO)cc(Nc2cc(C3CC3)[nH]n2)c1=O` [Compound 127, 6-(3-{2-tert-butyl-6-oxo-4H,5H,6H-thieno[2,3-c]pyrrol-5-yl}-2-(hydroxymethyl)phenyl)-4-[(5-cyclopropyl-1H-pyrazol-3-yl)amino]-2-methyl-2,3-dihydropyridazin-3-one], the EC50 amounted to 178 nM. The compound `Cc1cc(Nc2cc(-c3cccc(N4Cc5cc(C(C)(C)C)sc5C4=O)c3CO)nn(C)c2=O)nn1C` [Compound 131, 6-(3-{2-tert-butyl-6-oxo-4H,5H,6H-thieno[2,3-c]pyrrol-5-yl}-2-(hydroxymethyl)phenyl)-4-[(1,5-dimethyl-1H-pyrazol-3-yl)amino]-2-methyl-2,3-dihydropyridazin-3-one] showed an EC50 of 139 nM. `CC(=O)N1CCn2nc(Nc3cc(-c4cccc(N5Cc6cc(C(C)(C)C)sc6C5=O)c4CO)nn(C)c3=O)cc2C1` [Compound 132, 6-(3-{2-tert-butyl-6-oxo-4H,5H,6H-thieno[2,3-c]pyrrol-5-yl}-2-(hydroxymethyl)phenyl)-4-({5-acetyl-4H,5H,6H,7H-pyrazolo[1,5-a]pyrazin-2-yl}amino)-2-methyl-2,3-dihydropyridazin-3-one] gave an EC50 of 113 nM. As to `Cn1nc(-c2cccc(N3Cc4cc(C(C)(C)C)sc4C3=O)c2CO)cc(Nc2cc3n(n2)CCCOC3)c1=O` [Compound 134, 6-(3-{2-tert-butyl-6-oxo-4H,5H,6H-thieno[2,3-c]pyrrol-5-yl}-2-(hydroxymethyl)phenyl)-2-methyl-4-{4H,6H,7H,8H-pyrazolo[3,2-c][1,4]oxazepin-2-ylamino}-2,3-dihydropyridazin-3-one], the EC50 was 206 nM.

`Cn1nc(-c2cccc(N3Cc4cc(C(C)(C)C)sc4C3=O)c2CO)cc(Nc2ccncn2)c1=O` [Compound 136, 6-(3-{2-tert-butyl-6-oxo-4H,5H,6H-thieno[2,3-c]pyrrol-5-yl}-2-(hydroxymethyl)phenyl)-2-methyl-4-(pyrimidin-4-ylamino)-2,3-dihydropyridazin-3-one] yielded an EC50 of 704 nM.
